From paper PMC10786692 (The Journal of Clinical Investigation, 2024)
Values joined by “and” are separate entries in the source; they are usually repeats but may differ in a detail not shown here. Equal values may be shown once. Read-outs that look alike come from different tables or passages of the source.

Legend:
Assay type in all cases: in vivo, human
phospho-(S345)Chk1 = test: PBMC phospho-Chk1 immunofluorescence; conditions: after 2-week dosing
Protocol: PD sampling took place at baseline (within 7 days prior to dosing) and between days 15 and 22 of dosing (day 14 for intermittent dosing cohorts). PD samples included PBMCs and tumor biopsies. PBMCs were analyzed by immunofluorescence for γ^(S139)H2AX, p-^(S345)Chk1, and total Chk1, as described in Supplemental Methods. Paired tumor biopsies were formalin fixed and analyzed for nuclear p-^(S635)Rad50 and γH2AX by IHC.
PBMCs were isolated from blood using BD Vacutainer® CPT™ Cell preparation tubes with sodium citrate (BD Biosciences, Wokingham, UK) and fixed with 4% formalin containing 1% Triton™ X-100 (Sigma-Aldrich, St. Louis, MO). […] A Carl Zeiss LSM 700 confocal laser scanning fluorescence microscope (Zeiss, Jena, Germany) was used to visualize and capture images of the PBMCs. Fluorescent nuclear intensity for phospho-(S345) and total Chk1 in individual PBMC cells were quantified using the IN Cell Investigator Developer Toolbox v1.9 software (GE Healthcare Biosciences, Piscataway, NJ). For the phospho(S345)- and total Chk1 assays: the raw data values (fluorescent nuclear intensity for PBMCs), the percentage change for phospho(S345) biomarker was calculated for each subject by comparing the levels measured at each post-dose time point to pre-dose levels measured at baseline. […]
Peripheral blood was drawn into 8 mL EDTA tubes (Vacutainer, BD) and analyzed within 24 hours. […]

[1] = Plasma pharmacokinetics of ceralasertib (HPLC-MS/MS, NCA); conditions: for half-life: read-out: Mean terminal elimination half-life
Protocol: Intensive PK sampling in part A occurred after a single dose from predose up to 24 to 72 hours and again at day 15 and day 29 of continuous dosing. Participants fasted for 1 hour before and 2 hours after dosing for PK assessment. In part B, sampling coincided with day 15 PD assessments. Full details are given in Supplemental Methods. […]
Evaluated PK […]
maximum observed plasma concentration (Cmax), time to Cmax (tmax), and apparent terminal half-life (t1/2) calculated as ln/lambda-z where lambda-z (lz) is the apparent terminal phase rate- […]
constant estimated by linear regression of logarithmically-transformed concentration-versus-time data. A minimum of three data points were used in calculating lz as per AstraZeneca standard operating procedures. Data from multiple dosing were used to derive accumulation ratios based on Cmax (Race Cmax) and AUC(0-8) (Rac AUC0-8) defined as the ratio between Cmax or AUC(0-8) after multiple dose and Cmax and AUC(0-8) at day 1. All PK parameters for […]
WinNonLin v8.3 software or higher where the ‘linear up/log down trapezoidal rule’ for AUC was […]
applied. […]

plasma cytokines = test: Plasma cytokines, Bio-Plex Pro 27-plex; conditions: after 2 weeks of treatment
Protocol: DNA-Seq of tumor and matched buffy coats was either by whole-exome sequencing or a custom-designed panel targeting all exons of genes of interest for 173 genes, including potential markers of sensitivity to ATRi. ACK-lysed whole blood or PBMCs were stained for flow cytometry using 8 multicolor panels. Plasma cytokines were assessed using the Bio-Plex Pro 27-Plex Panel (Bio-Rad). See Supplemental Methods for full information.
Plasma was taken from EDTA tubes (BD vacutainer) used for buffy coat or immune profiling samples. Plasma was removed, re-spun and aliquoted into 1.5 mL tubes and stored at -70 OC until analysis. Samples were run in duplicate using the Bio-Plex Pro Human Cytokine 27-plex panel (Bio-Rad) as per manufacturer’s instructions.
Criteria for Dose Limiting Toxicity
1. Hematological toxicity
1. Grade 3 thrombocytopenia with bleeding
2. Grade 4 thrombocytopenia
3. Grade 4 neutropenia lasting >7 days in the absence of growth factor
4. Grade 4 neutropenia of any duration accompanied by fever ≥ 38.5°C and/or systemic infection
5. Any other grade ≥4 hematological toxicity
2. Cardiovascular toxicity
1. Clinically significant hypotension defined as an asymptomatic fall in systolic blood pressure more than 20mmHg to below 70mmHg persisting for at least 10 minutes
2. Symptomatic orthostatic fall in systolic blood pressure of more than 20mmHg compared to resting supine blood pressure
3. Prolongation of QTc >0.5 seconds (using an appropriate correction […]
3. Gastrointestinal/hepatic toxicity
1. ALT or AST >5 times ULN; ALP >5 times ULN with elevated gamma- GT

SMILES: C[C@@H]1COCCN1c1cc(C2([S@](C)(=N)=O)CC2)nc(-c2cc[nH]c3nccc2-3)n1 [ceralasertib]
- p-Chk1 levels in PBMCs with treatment (phospho-(S345)Chk1): not consistent
- Plasma concentration, individual patients ([1]; 20 mg day 0, 24 h): 142 ng/mL and 138 ng/mL and 380 ng/mL
- Plasma concentration, individual patients ([1]; 20 mg day 1, 24 h): 632 ng/mL and 586 ng/mL and 929 ng/mL
- Plasma concentration, individual patients ([1]; 40 mg day 0, 0 h, in ng/mL): 0
- Plasma concentration, individual patients ([1]; 40 mg day 0, 0.5 h): 760 ng/mL and 1280 ng/mL and 301 ng/mL
- Plasma concentration, individual patients ([1]; 40 mg day 0, 1 h): 1150 ng/mL and 2230 ng/mL and 1660 ng/mL
- Plasma concentration, individual patients ([1]; 40 mg day 0, 2 h): 1660 ng/mL and 1430 ng/mL
- Plasma concentration, individual patients ([1]; 40 mg day 0, 4 h): 1330 ng/mL and 1170 ng/mL
- Plasma concentration, individual patients ([1]; 40 mg day 0, 8 h): 894 ng/mL and 668 ng/mL
- Plasma concentration, individual patients ([1]; 40 mg day 0, 24 h): 226 ng/mL and 224 ng/mL
- Plasma concentration, individual patients ([1]; 40 mg day 1, 0.5 h): 1850 ng/mL and 634 ng/mL and 1990 ng/mL
- Plasma concentration, individual patients ([1]; 40 mg day 1, 1 h): 1440 ng/mL and 1570 ng/mL
- Plasma concentration, individual patients ([1]; 40 mg day 1, 2 h): 2060 ng/mL and 1610 ng/mL
- Plasma concentration, individual patients ([1]; 40 mg day 1, 4 h): 1500 ng/mL and 1300 ng/mL
- Plasma concentration, individual patients ([1]; 40 mg day 1, 8 h): 1190 ng/mL and 822 ng/mL
- Plasma concentration, individual patients ([1]; 40 mg day 1, 24 h): 1220 ng/mL and 677 ng/mL
- Plasma concentration, individual patients ([1]; 80 mg day 0, 0 h, in ng/mL): 0
- Plasma concentration, individual patients ([1]; 80 mg day 0, 0.5 h): 0 ng/mL
- Plasma concentration, individual patients ([1]; 80 mg day 0, 2 h): 2900 ng/mL and 1130 ng/mL and 2000 ng/mL and 4130 ng/mL and 1950 ng/mL and 3230 ng/mL
- Plasma concentration, individual patients ([1]; 80 mg day 0, 4 h): 2010 ng/mL and 3030 ng/mL and 1520 ng/mL
- Plasma concentration, individual patients ([1]; 80 mg day 0, […], in ng/mL): 0
- Plasma concentration, individual patients ([1]; 80 mg day 1, 0.5 h): 2360 ng/mL and 757 ng/mL and 378 ng/mL and 2950 ng/mL and 1020 ng/mL and 1250 ng/mL
- Plasma concentration, individual patients ([1]; 80 mg day 1, 1 h): 4420 ng/mL and 1340 ng/mL and 816 ng/mL and 2960 ng/mL and 939 ng/mL and 2250 ng/mL
- Plasma concentration, individual patients ([1]; 80 mg day 1, 2 h): 3650 ng/mL and 1700 ng/mL and 1500 ng/mL and 2460 ng/mL and 1310 ng/mL and 2040 ng/mL
- Plasma concentration, individual patients ([1]; 80 mg day 1, 4 h): 3230 ng/mL and 1160 ng/mL and 3200 ng/mL
- Oral absorption ([1]; all doses, single and multiple dose): rapidly orally absorbed
- concentration at 0 h ([1]; human, plasma, oral, 20 mg, 20 mg day 0, 0 h, read-out: Plasma concentration, individual patients): 0 ng/mL
- concentration at 4 h ([1]; human, plasma, oral, 20 mg, 20 mg day 0, 4 h, read-out: Plasma concentration, individual patients): 885 ng/mL
- concentration at 8 h ([1]; human, plasma, oral, 20 mg, 20 mg day 0, 8 h, read-out: Plasma concentration, individual patients): 562 ng/mL
- concentration at 2 h ([1]; human, plasma, oral, 20 mg, 20 mg day 1, 2 h, read-out: Plasma concentration, individual patients): 757 ng/mL
- concentration at 4 h ([1]; human, plasma, oral, 20 mg, 20 mg day 1, 4 h, read-out: Plasma concentration, individual patients): 1020 ng/mL
- concentration at 8 h ([1]; human, plasma, oral, 20 mg, 20 mg day 1, 8 h, read-out: Plasma concentration, individual patients): 618 ng/mL
- concentration at 2 h ([1]; human, plasma, oral, 40 mg, 40 mg day 0, 2 h, read-out: Plasma concentration, individual patients): 2220 ng/mL
- concentration at 4 h ([1]; human, plasma, oral, 40 mg, 40 mg day 0, 4 h, read-out: Plasma concentration, individual patients): 1450 ng/mL
- concentration at 8 h ([1]; human, plasma, oral, 40 mg, 40 mg day 0, 8 h, read-out: Plasma concentration, individual patients): 1010 ng/mL
- concentration at 24 h ([1]; human, plasma, oral, 40 mg, 40 mg day 0, 24 h, read-out: Plasma concentration, individual patients): 203 ng/mL
- concentration at 1 h ([1]; human, plasma, oral, 40 mg, 40 mg day 1, 1 h, read-out: Plasma concentration, individual patients): 2490 ng/mL
- concentration at 2 h ([1]; human, plasma, oral, 40 mg, 40 mg day 1, 2 h, read-out: Plasma concentration, individual patients): 2290 ng/mL
- concentration at 4 h ([1]; human, plasma, oral, 40 mg, 40 mg day 1, 4 h, read-out: Plasma concentration, individual patients): 1640 ng/mL
- concentration at 8 h ([1]; human, plasma, oral, 40 mg, 40 mg day 1, 8 h, read-out: Plasma concentration, individual patients): 996 ng/mL
- concentration at 24 h ([1]; human, plasma, oral, 40 mg, 40 mg day 1, 24 h, read-out: Plasma concentration, individual patients): 1150 ng/mL
- concentration at 0 h ([1]; human, plasma, oral, 80 mg, 80 mg day 0, 0 h, read-out: Plasma concentration, individual patients): 0 ng/mL
- concentration at […] ([1]; human, plasma, oral, 80 mg, 80 mg day 0, […], read-out: Plasma concentration, individual patients): 0 ng/mL
- concentration at 0 h ([1]; human, plasma, oral, 160 mg, 160 mg day 0, 0 h, read-out: Plasma concentration, individual patients): 0 ng/mL
- concentration at 0 h ([1]; human, plasma, oral, 240 mg, 240 mg day 0, 0 h, read-out: Plasma concentration, individual patients): 0 ng/mL
- concentration at 8 h ([1]; human, plasma, oral, 240 mg, 240 mg day 0, 8 h, read-out: Plasma concentration, individual patients): 4640 ng/mL
- concentration at 12 h ([1]; human, plasma, oral, 240 mg, 240 mg day 0, read-out: Plasma concentration, individual patients): 4200 ng/mL
- concentration at 0 h ([1]; human, plasma, oral, 240 mg, 240 mg day 15, 0 h, read-out: Plasma concentration, individual patients): 8530 ng/mL
- concentration at 0.5 h ([1]; human, plasma, oral, 240 mg, 240 mg day 15, 0.5 h, read-out: Plasma concentration, individual patients): 13500 ng/mL
- concentration at 1 h ([1]; human, plasma, oral, 240 mg, 240 mg day 15, 1 h, read-out: Plasma concentration, individual patients): 17000 ng/mL
- concentration at 4 h ([1]; human, plasma, oral, 240 mg, 240 mg day 15, 4 h, read-out: Plasma concentration, individual patients): 13500 ng/mL
- concentration at 8 h ([1]; human, plasma, oral, 240 mg, 240 mg day 15, 8 h, read-out: Plasma concentration, individual patients): 10200 ng/mL
- concentration at 12 h ([1]; human, plasma, oral, 240 mg, 240 mg day 15, read-out: Plasma concentration, individual patients): 9080 ng/mL
- concentration at […] ([1]; human, plasma, oral, 240 mg, 240 mg day 15, […], read-out: Plasma concentration, individual patients): 11200 ng/mL
- half-life ([1]; human, plasma, oral, 40 and 80 mg dose levels): 5.3 to 7.7 h
- half-life ([1]; human, plasma, oral, 160 and 240 mg dose levels): 11.2 to 12.8 h
- Tmax ([1]; human, plasma, oral, all doses, single and multiple dose, read-out: Median time to peak drug concentration (tmax)): 0.5 to 4 h
- Exposure versus dose ([1]; single dosing, 80 to 240 mg): increased approximately proportionally
- Circulating CCL2 level (plasma cytokines): increase
- Circulating CCL4 level (plasma cytokines): decrease
- Circulating CCL5 level (plasma cytokines): decrease
